Like-named read-outs stand apart in the source and are kept apart here.
Assays:
[1] = Kidney cell viability assay (Alamar Blue); details: human
Method: (§1) HEK 293 cells were maintained in MEM medium (Corning Cellgro, 10-009 CV) supplemented with 10% FBS (Sigma, F2242). […] Cells at 80% confluence were harvested and diluted in growth medium, then 45 μL of the THLE-3 cells (1,500 cells/well) or HEK 293 cells (1,500 cells/well) were dispensed per well, and plates were sealed with “Breathe Easy” oxygen permeable membranes (Diversified Biotech) and incubated at 37° C., 5% CO2, for 24 h.

E. coli GroEL/ES = target: T1, E. coli GroEL/ES (Escherichia coli, UniProt P0A6F5); experiment: GroEL/ES-mediated dRho refolding assay; format: biochemical; details: for log(IC50) GroEL/ES-dRho Refolding: log of IC50 (μM scale), with standard deviation
T1 construct: made in house; host or cells: GroEL in E. coli DH5α; GroES in E. coli BL21 (DE3)
Method: Reagent preparation: For this assay, five primary reagent stocks were prepared: 1) GroEUES-dRho binary complex stock; 2) ATP initiation stock; 3) thiocyanate enzymatic assay stock; 4) formaldehyde quench stock; 5) ferric nitrate reporter stock. Denatured rhodanese (dRho) was prepared by 3-fold dilution of rhodanese (Roche product #R1756, diluted to 10 mg/mL with H2O) with denaturant buffer (12 M Urea, 50 mM Tris-HCl, pH 7.4, and 10 mM DTT). Rhodanese was completely denatured by incubating at room temperature for 45 min. The binary complex solution was prepared by slowly adding the dRho stock to a stirring stock of concentrated GroEL in modified folding buffer (50 mM Tris-HCl, pH 7.4, 50 mM KCl, 10 mM MgCl2, 5 mM Na2S2O3, and 1 mM DTT). The solution was centrifuged at 16,000×g for 5 minutes, and the supernatant was collected and added to a solution of GroES in modified folding buffer to give final protein concentrations of 100 nM GroEL, 120 nM GroES, and 80 nM dRho. The binary complex stock was prepared immediately prior to use. For the ATP initiation stock, ATP solid was diluted into modified folding buffer to a final concentration of 2.0 mM. The thiocyanate enzymatic assay stock was prepared to contain 70 mM KH2PO4, 80 mM KCN, and 80 mM Na2S2O3 in water. The formaldehyde quench solution contained 30% formaldehyde in water. The ferric nitrate reporter stock contained 8.5% w/v Fe(NO3)3 and 11.3% v/v HNO3 in water.
Assay Protocol: First, 10 μL aliquots of the GroEL/ES-dRho complex stock were dispensed into clear, 384-well polystyrene plates. […] The chaperonin-mediated refolding cycle was initiated by addition of 10 μL of ATP stock (reagent concentrations during refolding cycle: 50 nM GroEL, 60 nM GroES, 40 nM dRho, 1 mM ATP, and compounds of 250 μM to 114 nM, 3-fold dilution series). After incubating for 45 minutes at 37° C. for the refolding cycle, 30 μL of the thiocyanate enzymatic assay stock was added and incubated for 60 min at R.T. for the refolded rhodenase enzymatic reporter reaction. The reporter reaction was quenched by adding 10 μL of the formaldehyde quench stock, and then 40 μL of the ferric nitrate reporter stock was added to quantify the amount of thiocyanate produced during the enzymatic reporter reaction, which is proportional to the amount of dRho refolded by GroEL/ES. After incubating at R.T. for 15 min, the absorbance by Fe(SCN)3 was measured at 460 nm using a Molecular Devices SpectraMax Plus384 microplate reader. A second set of baseline control plates were prepared analogously, but without GroEL/ES-dRho protein binary solution, to correct for possible interference from compound absorbance or turbidity. […] Results presented represent the averages of IC50 values obtained from at least quadriplicate (duplicate of duplicate) replicates.
After generating the compound library, we next employed a series of well-established biochemical assays to evaluate compound inhibitory effects against the GroEUES chaperonin system (See FIG. 6 and FIG. 7). We used E. coli GroEUES as the surrogate chaperonin system for refolding of the reporter enzymes malate dehydrogenase (MDH) and rhodanese (Rho). Briefly, binary complexes are formed between GroEL and denatured MDH or Rho, which are then refolded to their native states upon addition of ATP and the GroES co-chaperonin. Enzymatic activities of refolded native MDH or Rho act as coupled reporters of GroEUES refolding functions since in the presence of chaperonin inhibitors, no functional reporter enzymes are generated.

[2] = Liver cell viability assay (Alamar Blue); details: human
Method: as §1

native Rho (rhodanese) = target: T2, native Rho (rhodanese) (Bos taurus, UniProt P00586); experiment: Counter-screen for inhibition of native rhodanese enzymatic activity; format: biochemical; details: for log(IC50) Native Rho Reporter: log of IC50 (μM scale), with standard deviation
T2 construct: purchased Roche (so in the source) R1756
T2 sequence (P00586 1-297): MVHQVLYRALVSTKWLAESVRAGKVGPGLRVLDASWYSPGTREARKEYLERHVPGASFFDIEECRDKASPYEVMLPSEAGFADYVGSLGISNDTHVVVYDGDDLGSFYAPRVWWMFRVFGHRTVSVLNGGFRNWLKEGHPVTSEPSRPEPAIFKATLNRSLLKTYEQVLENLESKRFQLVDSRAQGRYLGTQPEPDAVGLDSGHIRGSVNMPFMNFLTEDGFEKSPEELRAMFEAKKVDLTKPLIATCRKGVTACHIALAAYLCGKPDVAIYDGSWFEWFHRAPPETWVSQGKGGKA
Method: Reagent Preparations & Assay Protocol: Reagents were identical to those used in the GroEUES-dRho refolding assay described above; however, the assay protocol differed in the sequence of compound addition to the wells. Compounds were pin-transferred after the 60 minute incubation for the refolding cycle, but prior to the addition of the thiocyanate enzymatic assay stock. Thus, the refolding reactions were allowed to proceed for 60 min at 37° C. in the absence of test compounds, but the enzymatic activity of the refolded rhodanese reporter enzyme was monitored in the presence of test compounds (inhibitor concentration range during the enzymatic reporter reaction is 100 µM to 46 nM-3-fold dilutions). IC50 values for the rhodenase reporter enzyme were determined as described above. Results presented represent the averages of IC50 values obtained from at least quadriplicate (duplicate of duplicate) replicates.

[3] = read-out: Biochemical Assay IC50 GroEL/ES-dRho Refolding
[4] = read-out: Biochemical Assay IC50 Native Rho Reporter

T1 sequence (P0A6F5 2-548): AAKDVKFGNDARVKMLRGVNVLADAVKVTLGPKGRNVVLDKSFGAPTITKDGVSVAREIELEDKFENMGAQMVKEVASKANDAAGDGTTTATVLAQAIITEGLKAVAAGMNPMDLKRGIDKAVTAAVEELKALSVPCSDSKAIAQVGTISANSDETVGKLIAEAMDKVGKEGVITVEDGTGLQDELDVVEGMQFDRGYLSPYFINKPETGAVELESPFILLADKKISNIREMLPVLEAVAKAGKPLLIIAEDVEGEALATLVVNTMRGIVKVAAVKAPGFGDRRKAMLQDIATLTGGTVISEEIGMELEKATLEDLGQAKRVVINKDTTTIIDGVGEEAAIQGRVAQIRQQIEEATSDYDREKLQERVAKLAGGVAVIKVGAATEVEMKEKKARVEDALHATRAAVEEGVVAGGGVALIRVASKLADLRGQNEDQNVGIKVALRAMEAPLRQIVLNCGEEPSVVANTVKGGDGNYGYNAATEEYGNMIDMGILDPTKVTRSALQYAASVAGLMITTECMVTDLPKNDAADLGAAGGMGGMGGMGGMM

SMILES | CC50 at 48 h [1] [µM] | log(IC50) GroEL/ES-dRho Refolding (E. coli GroEL/ES) | IC50 (E. coli GroEL/ES; [3]) [µM] | CC50 at 48 h [2] [µM] | log(IC50) Native Rho Reporter (native Rho (rhodanese)) | IC50 (native Rho (rhodanese); [4]) [µM] | IC50 (E. coli GroEL/ES) [µM] | CC50 at 48 h ([2]; THLE-3 liver cells) [µM] | IC50 (native Rho (rhodanese)) [µM]
O=C(Nc1cccc(Cl)c1)c1cc(Br)cc(Br)c1O [Compound 9, 3,5-Dibromo-N-(3-chlorophenyl)-2-hydroxybenzamide] | 18.2 | 1.67 ± 0.04 | 47 | 9.12 | >2 | > 100 | – | – | –
O=C(Nc1ccccc1)c1cc(Br)cc(Br)c1O [Compound 13, 3,5-Dibromo-2-hydroxy-N-phenylbenzamide] | 33.9 | >2 | – | – | >2 | > 100 | > 100 | 25.1 | –
O=C(Nc1ccccc1)c1ccccc1O [Compound 16, 2-Hydroxy-N-phenylbenzamide] | > 100 | >2 | > 100 | 67.6 | >2 | – | – | – | > 100
O=C(Nc1ccc(Sc2nc3ccccc3s2)c(Cl)c1)c1cc(Br)cc(Br)c1 [Compound 17, N-(4-(Benzo[d]thiazol-2-ylthio)-3-chlorophenyl)-3,5-dibromobenzamide] | > 100 | – | – | > 100 | – | > 100 | > 100 | – | –
O=C(Nc1ccc(Sc2nc3ccccc3s2)c(Cl)c1)c1cccc(Br)c1 [Compound 18, N-(4-(Benzo[d]thiazol-2-ylthio)-3-chlorophenyl)-3-bromobenzamide] | > 100 | – | – | 87.1 | – | > 100 | > 100 | – | –
O=C(Nc1ccc(Sc2nc3ccccc3s2)cc1)c1cc(Br)cc(Br)c1 [Compound 20, N-(4-(Benzo[d]thiazol-2-ylthio)phenyl)-3,5-dibromobenzamide] | > 100 | – | – | > 100 | – | > 100 | > 100 | – | –
O=C(Nc1ccc(Sc2nc3ccccc3s2)cc1)c1ccccc1 [Compound 22, N-(4-(Benzo[d]thiazol-2-ylthio)phenyl)benzamide] | > 100 | – | – | > 100 | – | > 100 | > 100 | – | –
O=C(Nc1cccc(Cl)c1)c1cccc(Br)c1 [Compound 24, 3-Bromo-N-(3-chlorophenyl)benzamide] | 51.3 | >2 | – | 50.1 | >2 | > 100 | > 100 | – | –
O=C(Nc1cccc(Cl)c1)c1ccccc1 [Compound 25, N-(3-Chlorophenyl)benzamide] | > 100 | >2 | – | > 100 | >2 | > 100 | > 100 | – | –
O=C(Nc1ccccc1)c1cc(Br)cc(Br)c1 [Compound 26, 3,5-Dibromo-N-phenylbenzamide] | > 100 | >2 | – | > 100 | >2 | > 100 | > 100 | – | –
O=C(Nc1ccccc1)c1cccc(Br)c1 [Compound 27, 3-Bromo-N-phenylbenzamide] | > 100 | >2 | – | > 100 | >2 | > 100 | > 100 | – | –
COc1c(Br)cc(Br)cc1C(=O)Nc1ccc(Sc2nc3ccccc3s2)c(Cl)c1 [Compound 29, N-(4-(Benzo[d]thiazol-2-ylthio)-3-chlorophenyl)-3,5-dibromo-2-methoxybenzamide] | > 100 | – | – | > 100 | – | > 100 | > 100 | – | –
COc1ccc(Br)cc1C(=O)Nc1ccc(Sc2nc3ccccc3s2)c(Cl)c1 [Compound 31, N-(4-(Benzo[d]thiazol-2-ylthio)-3-chlorophenyl)-5-bromo-2-methoxybenzamide] | > 100 | – | – | > 100 | – | > 100 | > 100 | – | –
COc1ccccc1C(=O)Nc1ccc(Sc2nc3ccccc3s2)c(Cl)c1 [Compound 32, N-(4-(Benzo[d]thiazol-2-ylthio)-3-chlorophenyl)-2-methoxybenzamide] | > 100 | – | – | > 100 | – | > 100 | > 100 | – | –
COc1c(Br)cc(Br)cc1C(=O)Nc1ccc(Sc2nc3ccccc3s2)cc1 [Compound 33, N-(4-(Benzo[d]thiazol-2-ylthio)phenyl)-3,5-dibromo-2-methoxybenzamide] | > 100 | – | – | > 100 | – | > 100 | > 100 | – | –
COc1ccc(Br)cc1C(=O)Nc1ccc(Sc2nc3ccccc3s2)cc1 [Compound 35, N-(4-(Benzo[d]thiazol-2-ylthio)phenyl)-5-bromo-2-methoxybenzamide] | > 100 | – | – | > 100 | – | > 100 | > 100 | – | –
COc1ccccc1C(=O)Nc1ccc(Sc2nc3ccccc3s2)cc1 [Compound 36, N-(4-(Benzo[d]thiazol-2-ylthio)phenyl)-2-methoxybenzamide] | > 100 | – | – | > 100 | – | > 100 | > 100 | – | –
COc1c(Br)cc(Br)cc1C(=O)Nc1cccc(Cl)c1 [Compound 37, 3,5-Dibromo-N-(3-chlorophenyl)-2-methoxybenzamide] | > 100 | >2 | – | > 100 | >2 | > 100 | > 100 | – | –
COc1c(Br)cccc1C(=O)Nc1cccc(Cl)c1 [Compound 38] | > 100 | >2 | – | > 100 | >2 | > 100 | > 100 | – | –
COc1ccc(Br)cc1C(=O)Nc1cccc(Cl)c1 [Compound 39, 5-Bromo-N-(3-chlorophenyl)-2-methoxybenzamide] | > 100 | >2 | – | 93.3 | >2 | > 100 | > 100 | – | –

— patent publication US20210395210A1, “INHIBITION OF BACTERIAL CHAPERONIN SYSTEMS” (THE TRUSTEES OF INDIANA UNIVERSITY, priority 2018, published 2021)
